± gives the standard deviation of the averaged measurements.
Tests used:
Details in all cases: 72 h
Caco-2 [1] = assay: cell viability relative to DMSO; higher = less toxic
Calu-3 [2] = assay: as above
HepG2 [3] = assay: as above
U2OS [4] = assay: as above
Vero E6 [5] = assay: as above
Caco-2 [6] = assay: relative viability EC50 (midpoint between 100% and the lowest measured viability); higher = less toxic
Calu-3 [7] = assay: as above
HepG2 [8] = assay: as above
U2OS [9] = assay: as above
Vero E6 [10] = assay: as above
Caco-2 [11] = assay: drug sensitivity score (DSS) for viability; higher = more toxic; extreme values may be limits of the assay
Calu-3 [12] = assay: as above
HepG2 [13] = assay: as above
U2OS [14] = assay: as above
Vero E6 [15] = assay: as above

SMILES | cell viability (Caco-2 [1]; 1 nM) [%] | cell viability (Caco-2 [1]; 10 nM) [%] | cell viability (Caco-2 [1]; 100 nM) [%] | cell viability (Caco-2 [1]; 1000 nM) [%] | cell viability (Caco-2 [1]; 10000 nM) [%] | cell viability (Calu-3 [2]; 1 nM) [%] | cell viability (Calu-3 [2]; 10 nM) [%] | cell viability (Calu-3 [2]; 100 nM) [%] | cell viability (Calu-3 [2]; 1000 nM) [%] | cell viability (Calu-3 [2]; 10000 nM) [%] | cell viability (HepG2 [3]; 1 nM) [%] | cell viability (HepG2 [3]; 10 nM) [%] | cell viability (HepG2 [3]; 100 nM) [%] | cell viability (HepG2 [3]; 1000 nM) [%] | cell viability (HepG2 [3]; 10000 nM) [%] | cell viability (U2OS [4]; 1 nM) [%] | cell viability (U2OS [4]; 10 nM) [%] | cell viability (U2OS [4]; 100 nM) [%] | cell viability (U2OS [4]; 1000 nM) [%] | cell viability (U2OS [4]; 10000 nM) [%] | cell viability (Vero E6 [5]; 1 nM) [%] | cell viability (Vero E6 [5]; 10 nM) [%] | cell viability (Vero E6 [5]; 100 nM) [%] | cell viability (Vero E6 [5]; 1000 nM) [%] | cell viability (Vero E6 [5]; 10000 nM) [%] | relative viability EC50 (Caco-2 [6]) [µM] | relative viability EC50 (Calu-3 [7]) [µM] | relative viability EC50 (HepG2 [8]) [µM] | relative viability EC50 (U2OS [9]) [µM] | relative viability EC50 (Vero E6 [10]) [µM] | drug sensitivity score (Caco-2 [11]) | drug sensitivity score (Calu-3 [12]) | drug sensitivity score (HepG2 [13]) | drug sensitivity score (U2OS [14]) | drug sensitivity score (Vero E6 [15])
CC[C@H](C)C[C@H](C)CCCCCCCCC(=O)N[C@H]1C[C@@H](O)[C@@H](NCCN)NC(=O)[C@@H]2[C@@H](O)CCN2C(=O)[C@H]([C@H](O)CCN)NC(=O)[C@H]([C@H](O)[C@@H](O)c2ccc(O)cc2)NC(=O)[C@@H]2C[C@@H](O)CN2C(=O)[C@H]([C@@H](C)O)NC1=O [caspofungin] | 88.2 ± 4.6 | 96.5 ± 3 | 115 ± 24 | 90.2 ± 18 | 95 ± 1.3 | 104 ± 13 | 104 ± 14 | 104 ± 1.4 | 96.5 ± 5.9 | 89.5 ± 0.85 | 91.8 | 106 | 110 | 116 | 103 | 95.2 ± 2.2 | 95.6 ± 0.14 | 98 ± 1.3 | 98.2 ± 6.6 | 99 ± 1.6 | 98.1 ± 1.8 | 99 ± 3.3 | 98.85 ± 0.64 | 95.1 ± 1.6 | 101 ± 7.1 | > 10 | > 10 | > 10 | > 10 | > 10 | 1.35 ± 1.9 | 0.1 ± 0.14 | 0 | 0 | 0
N#C/C(=C\c1cccn1S(=O)(=O)c1cccc([N+](=O)[O-])c1)S(=O)(=O)c1ccc(F)cc1 [AMZ30] | 104 | 99 | 95.3 | 96.3 | 84.8 | 90.5 | 98 | 104 | 105 | 108 | 95.8 | 105 | 119 | 93.7 | 103 | 102 | 101 | 96.8 | 96.2 | 94.1 | 98.6 | 97.6 | 96.4 | 94.9 | 93.3 | > 10 | > 10 | > 10 | > 10 | > 10 | 0.4 | 0 | 0 | 0 | 0
CCCCCCCCCCC(=O)O[C@H]1CC[C@H]2[C@@H]3CCC4=CC(=O)CC[C@]4(C)[C@H]3CC[C@]12C [Testosterone (undecanoate)] | 87.3 | 92.9 | 104 | 96.7 | 91.5 | 103 | 94.7 | 96.5 | 94.4 | 100 | 95.6 | 106 | 92.4 | 99.4 | 96.9 | 99.8 | 94.4 | 102 | 99.4 | 97.7 | 98.5 | 97.2 | 99.2 | 95.5 | 94.9 | > 10 | > 10 | > 10 | > 10 | > 10 | 0 | 0 | 0 | 0 | 0
C[C@]12CCC(=O)C=C1CC[C@@H]1[C@@H]2[C@@H](O)C[C@@]2(C)[C@H]1CC[C@]2(O)C(=O)COC(=O)CCC(=O)O [hydrocortisone-hemisuccinate] | 104 | 98.7 | 101 | 106 | 111 | 93.6 | 100 | 101 | 101 | 95.9 | 92.9 | 113 | 108 | 96.1 | 92.1 | 103 | 101 | 104 | 100 | 99.6 | 96.3 | 96.8 | 98.3 | 93.5 | 102 | > 10 | > 10 | > 10 | > 10 | > 10 | 0 | 0 | 0 | 0 | 0
COc1cc2nc(N3CCN(C(=O)COc4c(OC)cccc4C(C)C)CC3)nc(N)c2cc1OC [Rec-15/2615] | 84.3 | 102 | 101 | 90.1 | 84.4 | 98.7 | 102 | 97.3 | 95.4 | 84.8 | 91.2 | 92.1 | 103 | 92 | 83.7 | 96.4 | 97.9 | 94.3 | 95.9 | 84.2 | 98.8 | 99.3 | 99.4 | 99.6 | 95.5 | > 10 | > 10 | > 10 | > 10 | > 10 | 1 | 0.4 | 1 | 0.1 | 0
CCN(Cc1ccc(Cl)nc1)/C(=C/[N+](=O)[O-])NC [nitenpyram] | 95.8 | 100 | 95 | 97.5 | 98.3 | 101 | 94 | 93.5 | 104 | 94 | 104 | 98.7 | 105 | 97.5 | 108 | 99 | 97 | 98 | 100 | 101 | 103 | 104 | 98.1 | 96.9 | 105 | > 10 | > 10 | > 10 | > 10 | > 10 | 0 | 0 | 0 | 0 | 0
CC(=O)OCC(=O)[C@@]1(OC(C)=O)[C@@H](C)C[C@H]2[C@@H]3C[C@H](F)C4=CC(=O)C=C[C@]4(C)[C@@]3(F)[C@@H](O)C[C@@]21C [diflorasone-diacetate] | 110 | 106 | 99 | 98.4 | 87.6 | 105 | 95.9 | 93.1 | 100 | 101 | 82.6 | 90.4 | 87.9 | 97.8 | 95.2 | 102 | 96.9 | 95.9 | 96.5 | 89.9 | 104 | 106 | 105 | 90.7 | 98.1 | > 10 | > 10 | > 10 | > 10 | > 10 | 0.2 | 0 | 0 | 0 | 0
Cn1cc(-c2ccc3nnc(Sc4ccc5ncccc5c4)n3n2)cn1 [SGX523] | 92.5 | 98.6 | 103 | 107 | 100 | 89 | 97.2 | 102 | 96.5 | 100 | 96.2 | 95.2 | 92.5 | 97.2 | 103 | 99 | 98.6 | 101 | 93.4 | 103 | 94.8 | 101 | 94.4 | 98 | 107 | > 10 | > 10 | > 10 | > 10 | > 10 | 0 | 0 | 0 | 0 | 0
COc1ccccc1N1CCN(CC(O)COc2cc(OC)c(OC)c(OC)c2)CC1 (stereo not given) [enciprazine] | 104 | 97.9 | 89.3 | 93.8 | 99.8 | 101 | 106 | 100 | 98.1 | 105 | 98.3 | 99.9 | 91.4 | 94.2 | 96 | 94.9 | 98.2 | 95.1 | 96 | 94.9 | 100 | 101 | 101 | 99.1 | 99.4 | > 10 | > 10 | > 10 | > 10 | > 10 | 0 | 0 | 0 | 0 | 0
COc1ccc2c(c1)C(C(=O)N(Cc1ccc(N(C)C)cc1)c1ccc(C(C)C)cc1)CCC2 (stereo not given) | 105 | 96.3 | 105 | 95.9 | 75.5 | 90.3 | 98.9 | 96.9 | 88 | 107 | 99.8 | 109 | 98.5 | 109 | 102 | 102 | 100 | 102 | 98.2 | 100 | 101 | 103 | 99.3 | 103 | 105 | > 10 | > 10 | > 10 | > 10 | > 10 | 1.5 | 0 | 0 | 0 | 0
Cc1ccc(C)c(OCCCC(C)(C)C(=O)O)c1 [gemfibrozil] | 102 | 107 | 106 | 93.8 | 101 | 104 | 104 | 109 | 93.1 | 105 | 98.2 | 99.9 | 102 | 106 | 104 | 104 | 101 | 104 | 99.1 | 102 | 98.4 | 101 | 96.5 | 100 | 95.9 | > 10 | > 10 | > 10 | > 10 | > 10 | 0 | 0 | 0 | 0 | 0
COc1nccc(-c2c(-c3ccc(F)cc3)ncn2[C@H]2CC[C@H](O)CC2)n1 | 84.5 | 90.9 | 93.1 | 88.6 | 93.9 | 99.5 | 106 | 82.2 | 81.7 | 85.6 | 98.9 | 97.6 | 103 | 104 | 108 | 95.9 | 102 | 93.5 | 98.7 | 98.8 | 94.7 | 94.3 | 92.7 | 87.5 | 101 | > 10 | > 10 | > 10 | > 10 | > 10 | 0 | 3.8 | 0 | 0 | 0
CC(=O)N[C@@H](CSSC[C@H](NC(C)=O)C(=O)O)C(=O)O [D-7193] | 100 | 96.1 | 104 | 92 | 100 | 93.5 | 83.4 | 103 | 95.6 | 110 | 108 | 88.5 | 108 | 98.9 | 98 | 95.1 | 96.2 | 98.6 | 98.2 | 101 | 107 | 106 | 100 | 103 | 99.2 | > 10 | > 10 | > 10 | > 10 | > 10 | 0 | 0 | 0 | 0 | 0
